The nature of this data set: gradient 5% acetonitrile 3 min, to 50% in 2 min, to 85% in 15 min, held 3 min, 100 µL/min. Particulars: column: Zorbax Extend-C18 2.1 x 50 mm; eluents: water / acetonitrile, 0.1% formic acid. The gist of the method:
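Pure standards were run in mixtures of ~100 molecules by HPLC coupled to a quadrupole time-of-flight mass spectrometer. The column was a Zorbax Extend-C18 (2.1 × 50 mm, 1.8 μm) at 100 μL/min, with water and acetonitrile each containing 0.1% formic acid, in positive and negative ionization mode. Dead and dwell volumes were 40 μL and 900 μL. Retention time was taken from computationally picked adduct peaks, each manually inspected, with data collected over 3 months.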
Consider `COc1cc(CNC(=O)C2CCCN(c3nccnc3Sc3ccc(C)cc3)C2)cc(OC)c1` (stereo not given), for which the RP-LC retention time is 1060 s. For `CCOC(=O)C1CCN(C(=O)c2nnc(-c3ccc(S(=O)(=O)N(C)C)cc3)o2)CC1`, the RP-LC retention time is 829 s. In the case of `O=C(NC1CC1)[C@@H]1C[C@H](Oc2ccccc2)CN1C(=O)c1n[nH]c2ccccc12`, the RP-LC retention time came to 739 s. Consider `CCn1c(=O)oc2cc(-c3noc(-c4cc(Cl)ccc4F)n3)ccc21`, for which the RP-LC retention time turned out to be 1180 s. Take `CCOC(=O)Cc1c(C)nc2c(-c3ccccc3)cnn2c1C`: the RP-LC retention time was 1000 s. With `CCC(=Cc1ccc(CC)cn1)CC`, the RP-LC retention time came to 686 s.

In the case of `COC(=O)c1ccccc1Nc1c(-c2ccc(N(C)C)cc2)nc2cnccn12`, the RP-LC retention time is 921 s. The molecule `CC(C)n1cc(CN2CCCCCNC(=O)[C@@H]3CCC[C@@H]32)c2ccccc21` returned an RP-LC retention time of 701 s. Take `COc1ccccc1C(=O)N1CCN(c2cnn3c(C4CC4)nnc3c2)CC1`: the RP-LC retention time amounted to 623 s. Regarding `Cc1ccc(CNC(=O)C2CCCN(c3cnc4nc(C)c(C)nc4c3)C2)cc1` (stereo not given), the RP-LC retention time was found to be 741 s. In turn, `Cc1ccccc1NC(=O)Cn1cnc2onc(C)c2c1=O` yielded an RP-LC retention time of 718 s. Next, `O=C(NCc1cccnc1)C1CC(=O)N(CCc2c[nH]c3ccc(Cl)cc23)C1` (stereo not given): 613 s. `O=C(c1ccco1)N1CCN(C(=O)c2nnn3c2COC(c2ccc(Cl)cc2)C3)CC1` (stereo not given) had an RP-LC retention time of 838 s.

`Cc1nc(N2CCN(C)CC2)cc(N2CCN(C(=O)c3ccc(Br)o3)CC2)n1` had an RP-LC retention time of 570 s. `CN(C)c1cnc(-n2cc(NC(=O)c3ccc(F)cc3)cn2)nc1`: the RP-LC retention time turned out to be 723 s. In turn, `Cc1cc(C)cc(OCc2nc(CCN(C)C(=O)c3cccs3)no2)c1` returned an RP-LC retention time of 974 s.

`O=C(Nc1ccccc1)c1cccc(N2CC(C(=O)Nc3cccc(Cl)c3)CC2=O)c1` (stereo not given) showed an RP-LC retention time of 912 s. As for `CCn1cc(CN2CC(Oc3ccc(-c4noc(-c5cccnc5)n4)cc3)C2)cn1`, the RP-LC retention time amounted to 635 s. Take `O=C(NCC1CCOCC1)c1cnc(Nc2ccc(Cl)cc2Cl)nc1C(F)(F)F`: the RP-LC retention time turned out to be 997 s. Take `Cn1cc(S(=O)(=O)N2CCCCC2)cc1C(=O)N1CCCCC1`: the RP-LC retention time came out at 833 s. Next, `COCc1noc([C@@H]2CC(F)(F)CN2C(=O)c2occc2C)n1`: 788 s; `Cc1ccccc1Cn1cc(-c2ccncc2)cc1C(=O)NC(C)c1ccccn1` (stereo not given): 600 s; `CNC(=O)[C@@H]1CN(C(=O)c2ccn(C)n2)C[C@H]1COC`: 535 s. Take `CCN1CCn2cc(S(=O)(=O)Nc3cccc(OC)c3)cc2C1=O`: the RP-LC retention time was found to be 700 s. Consider `O=C([C@@H]1C[C@H](F)CN1S(=O)(=O)c1ccc(F)cc1F)N1CCc2ccccc2C1`, for which the RP-LC retention time was 906 s.

`O=C(NC1CC1)c1ccccc1OCC1CCN(C(=O)c2ccc(F)cc2)CC1` yielded an RP-LC retention time of 805 s. `CCCNC(=O)C1CCCN(c2ccc(SCC(=O)Nc3cccc(C(=O)OCC)c3)nn2)C1` (stereo not given) registered an RP-LC retention time of 741 s. Then `Cc1nccn1-c1ccc(N2CCN(C(=O)c3cc4ccccc4o3)CC2)nn1`, with 560 s; and `O=S(=O)(c1ccc2c(c1)CCC2)N1CCC(Cc2nc(-c3ccncc3)n[nH]2)C1` (stereo not given), with 662 s; and `O=C(Cn1nc(C(=O)N2CCOCC2)c2ccccc21)NCc1ccc(F)cc1`, with 715 s. `Cc1ccccc1NC(=O)N1CCC(N(CCC(C)C)C2CCOCC2)CC1` returned an RP-LC retention time of 636 s. `CCc1noc(-c2ccc(-n3ncc(C(=O)N4CCN(C)CC4)c3C)nc2)n1` had an RP-LC retention time of 618 s.

In the case of `CCOc1ccc(-c2[nH]ncc2CNS(=O)(=O)Cc2cc(F)cc(F)c2)cc1`, the RP-LC retention time came to 845 s. Turning to `Cn1c(=O)n(C)c2cc(CNc3ccc(Cl)cc3Cl)ccc21`, the RP-LC retention time was determined as 1070 s. In the case of `Cc1nc2nc(-c3ccccc3)nn2c(Sc2ccc(N)cc2)c1C`, the RP-LC retention time is 863 s.

For the molecule `Cc1ccc(C)c(S(=O)(=O)N2CC(N(C(=O)NC(C)C)C3CCOCC3)C2)c1`, the RP-LC retention time was 689 s. With `CCCCCCCNC(=O)C1CCCN(c2ncc(-c3ccc(F)cc3)cn2)C1` (stereo not given), the RP-LC retention time was 1260 s. For the molecule `CCOc1ccc(CNC(=O)C2CCCN(c3cc(=O)n(C)c(=O)n3CC)C2)cc1` (stereo not given), the RP-LC retention time was 812 s.

Consider `COc1ccc(NC(=O)CSc2nccc3c2ccn3C)c(OC)c1`, for which the RP-LC retention time was 687 s.

In the case of `COc1ccccc1NC(=O)Cn1cnc2nc(N3CCC(C(=O)NC4CC4)CC3)sc2c1=O`, the RP-LC retention time came out at 656 s. For `Cc1cccc(NC(=O)Cc2csc3nc(-c4cccc(Br)c4)cn23)c1C`, the RP-LC retention time stood at 983 s.

In the case of `CC1CCCCN1CCCNC(=O)c1cc(S(=O)(=O)N2CCCC2)ccc1Cl` (stereo not given), the RP-LC retention time stood at 643 s. With `Cc1noc(C)c1S(=O)(=O)N1CCC(c2noc(-c3ccncc3)n2)C1` (stereo not given), the RP-LC retention time came out at 789 s.

Consider `CCOC(=O)c1ccccc1NC(=O)CCCn1nc(-c2ccc(F)cc2)ccc1=O`, for which the RP-LC retention time worked out at 922 s. Molecule `C[C@@H]1c2ccccc2CCN1C(=O)c1ccccc1F` displayed an RP-LC retention time of 919 s.

On to `CC(C)n1cc(S(=O)(=O)Nc2ccc(F)c(F)c2)c2cccnc21`, for which the RP-LC retention time is 936 s. `COC(=O)c1ccc(COc2cc(O)c3c(=O)cc(-c4ccccc4)oc3c2)cc1` displayed an RP-LC retention time of 1290 s. In turn, `O=C(c1ccoc1)N1CCc2cc(-c3csc(C4CC4)n3)ccc21` returned an RP-LC retention time of 1060 s. Regarding `Cc1ccc(CN2CCC(CNC(=O)c3sc4ncccc4c3-n3cccc3)C2)cc1` (stereo not given), the RP-LC retention time is 707 s. For the molecule `COCCN1C(=O)CCc2cc(NC(=O)C3CCC3)ccc21`, the RP-LC retention time turned out to be 673 s. As to `COc1ccc(CNS(=O)(=O)c2cc3n(c2)CCCNC3=O)cc1`, the RP-LC retention time is 641 s. Consider `CN(C)C(=O)c1cn(C2CN(S(=O)(=O)c3cccc4nsnc34)C2)nn1`, for which the RP-LC retention time was 657 s. In the case of `COc1ccccc1OCC(=O)Nc1ccc2c(c1)C(=O)Nc1cc(Cl)ccc1O2`, the RP-LC retention time stood at 873 s. The molecule `CCOc1ccc(NS(=O)(=O)c2cc(-c3[nH]ncc3C(=O)N3CCCC3)oc2C)cc1` had an RP-LC retention time of 717 s. Molecule `COc1ccc(-c2nc(Cc3noc(-c4ccccc4)n3)c(C)o2)cc1` came in with an RP-LC retention time of 1100 s. Then `CC(C)Sc1ccc(CC(=O)NCC2CCN(C(=O)NC(C)(C)C)CC2)cc1`, with 828 s; and `O=C1CCCc2nc(N3CCN(c4ccccn4)CC3)ncc21`, with 566 s.

In turn, `Cc1noc(-c2nn(C)c3c2CN(C(=O)Nc2cccc(F)c2)CC3)n1` returned an RP-LC retention time of 744 s. `O=C(c1nccc2ccccc12)N1C[C@@H](CO)[C@H](c2ccccn2)C1` had an RP-LC retention time of 578 s.

`Cc1cc(Cl)ccc1NC(=O)N1C[C@H](c2nc(-c3cccnc3)no2)[C@@H](C)C1` yielded an RP-LC retention time of 827 s. Then `Cc1ccc(-c2nnc(SCc3noc(CCC(=O)Nc4ccc(F)c(Cl)c4)n3)o2)cc1`, with 1020 s; and `COc1ccc(C2CCCN2C(=O)c2c(C)noc2C)cc1` (stereo not given), with 746 s.

In turn, `COc1ccc(-c2nnc(N3CCC(C(=O)NCc4cc(F)cc(F)c4)CC3)o2)cc1` yielded an RP-LC retention time of 899 s.

`Cc1ncsc1CN1CCCC(c2nc(C(C)C)no2)CCNC(=O)CC1` (stereo not given) yielded an RP-LC retention time of 598 s.

On to `O=C(NCCc1csc(C2CCN(C(=O)C3CCCC3)CC2)n1)C1CC1`, for which the RP-LC retention time turned out to be 690 s.

Take `Cc1cccc(C)c1NC(=O)Cn1nc2n(c1=O)CCCCC2`: the RP-LC retention time is 684 s. In turn, `Cc1ccccc1NC(=O)N1CCCC(Cn2cnc3cccnc32)C1` (stereo not given) had an RP-LC retention time of 659 s. Turning to `Cn1c(=O)c2nc(SCCC(=O)Nc3ccc(Br)cc3F)n(C)c2n(C)c1=O`, the RP-LC retention time worked out at 806 s. Next, `Cc1cc(C(=O)Nc2cnc(N3CCCCC3)nc2)no1`: 845 s; `CCCNC(=O)CCC1CCN(S(=O)(=O)c2ccccc2)CC1`: 784 s; `Cc1cc(NC(=O)c2ccc3c(c2)OCO3)sn1`: 682 s.

For `COC(=O)c1ncn2c1C(=O)N(Cc1ccc(C)cc1)C(C)(C(=O)NCc1ccc(C)cc1)C2` (stereo not given), the RP-LC retention time was found to be 788 s. Turning to `CC(=O)N(C1CC1)C1CCOC2(CCN(C(=O)c3ccsc3)CC2)C1` (stereo not given), the RP-LC retention time was 673 s. Next, `O=C(NCc1ccc(C(F)(F)F)cc1)c1c(O)c2cccnc2n(-c2ccccc2)c1=O`: 1230 s.

For `CCC(C(=O)NCCc1ccc(Cl)cc1)n1cnc2oc(C)c(C)c2c1=O` (stereo not given), the RP-LC retention time was determined as 924 s.

With `Cc1cc(OCC(=O)Nc2ccc(F)c(Cl)c2)nc(N2CCN(c3ccccc3)CC2)n1`, the RP-LC retention time was determined as 956 s. As for `CCC1CN(C(=O)N2CCC(C(=O)NCCCN3CCOCC3)CC2)c2cc(C)ccc2O1` (stereo not given), the RP-LC retention time is 648 s. In the case of `COC(=O)N1CCc2ccc(F)cc2C1C(=O)Nc1ncc(C)s1` (stereo not given), the RP-LC retention time turned out to be 788 s. Then `CCOc1ccc(C(=O)N2CCC3(C2)C(=O)N(C)c2ccc(OC)cc23)cc1` (stereo not given), with 788 s; and `O=C(NCCCN1CCCC1=O)c1cc2c(s1)CCN(C(=O)c1ccc(F)cc1)C2`, with 670 s.

Values taken from the METLIN SMRT retention time set (Domingo-Almenara et al. 2019).
